Several values for one entry are separate records, joined by “and”; a condition that tells them apart may be missing. Equal entries are not always repeated.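 Method: 48-hour compound exposure of cells in 96-well plates, five concentrations, linear interpolation of endpoints. GI50: concentration for 50% inhibition of growth. TGI: total growth inhibition.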
System: MDA-MB-468 breast
Assay: growth of human tumour cells (NCI), 48 h

Structure (SMILES) | GI50 | TGI
C=C(C)[C@@H]1CC[C@]2(C(=O)NCCCN)CC[C@]3(C)[C@H](CC[C@@H]4[C@@]5(C)CC[C@H](O)C(C)(C)[C@@H]5CC[C@]43C)[C@@H]12 | 12.6 µM | 48.5 µM
C[C@]12CC[C@H]3[C@@H](CCC4=CC(=O)CC[C@@H]43)[C@@H]1CC[C@@H]2OC(=O)N(CCCl)N=O | 0.512 µM | 5.7 µM
CC[C@H](Nc1nc(N)nc(C)c1C#N)c1nc2cccc(CN(C)c3ncc(C(=O)NO)cn3)c2c(=O)n1-c1ccccc1 | 0.367 µM | 10.5 µM
O=S(=O)(c1ccc(NC(=S)NCc2cccnc2)cc1)N1CCCCC1 | 9.8 µM | 95.8 µM
Cc1cc(N2CCCCC2)nc(N(CCNc2ccnc3cc(Cl)ccc23)Cc2ccco2)n1 | 1.74 µM | 3.87 µM
CNC(=O)c1cc(N2CCc3cc(NC(=O)Nc4ccc(N5CCN(C)CC5)c(C(F)(F)F)c4)ccc32)ccn1 | 3.68 µM | 7.95 µM
NC(=O)[C@H]1CCN(c2ncnc(N)c2F)C[C@@H]1N1CCC[C@@H](Nc2cc(Cl)cc(C(F)(F)F)c2)C1=O | 11.2 µM | 34.4 µM
CCN(CC)c1ccc(/C=C/c2cc(C)c3ccccc3n2)cc1 | 3.06 µM | 9.02 µM
CC(C)(O)c1ccc(N2CCN(c3nnc(Cc4ccccc4)c4ccccc34)CC2)nc1 | 2.78 µM | 12.8 µM
COc1cc2nc(Cl)nc(Nc3cccc(C(=O)/C=C/c4ccccc4)c3)c2cc1OC | 3.39 µM | > 100 µM
O=C1C(Cl)=C(N/N=c2/[nH][nH]/c(=N/NC3=C(Cl)C(=O)c4ccccc4C3=O)c3ccccc23)C(=O)c2ccccc21 | 14.7 µM | 32.9 µM
Fc1ccc(-c2nc3n(c2-c2ccncc2)CCS3)cc1 | 4.63 µM | > 25 µM
CCN=C1C=CC(=C(c2ccc(N(C)C)cc2)c2ccc(N(C)C)cc2)c2ccccc21 | 0.047 µM | 0.346 µM
CC1=C2C(=C[C@@](C)(COC(=O)c3ccc(S(=O)(=O)F)cc3)[C@@H]2OC(=O)c2ccc(S(=O)(=O)F)cc2)C(=O)[C@](C)(O)C12CC2 | 0.187 µM | 0.465 µM
CC12CCC=CC1CCC1C2CCC2(C)C(c3ccc(=O)oc3)CCC12O (stereo not given) | 0.313 µM | 1.22 µM
OCC1OC(n2ccc3c2ncn2ncnc32)C(O)C1O (stereo not given) | 0.279 µM | 3.19 µM
COc1cc(Cn2cc3c(c2)-c2oncc2CC3)cc(OC)c1OC | 0.0147 µM | 0.0541 µM
CCN1C(=O)N(CC)C2C1NN=c1s/c(=C3\C(=O)N(C(C)C)c4ccccc43)c(=O)n12 (stereo not given) | 0.321 µM | 5.58 µM
CN(C)CCNC(=O)c1cccn2c(=O)c3cc4ccccc4cc3nc12 | 0.299 µM | 1.12 µM
CCCC(=O)NC(c1cccnc1)c1ccc2c(C)ccnc2c1O (stereo not given) | 1.68 µM | 6.91 µM
CC1=C(C(=O)OCc2ccccc2)C(c2ccc3c(c2)OCO3)n2c(nc3ccccc32)N1 (stereo not given) | 0.247 µM | 39.5 µM
COc1cc2cc(Oc3ccc(NC(=O)Nc4ccc(Cl)c(C(F)(F)F)c4)cc3)c(C)nc2cc1OCCN1CCCCC1 | 1.34 µM | 2.85 µM
CC(=O)/C(N=Nc1ccc2oc(=O)ccc2c1)=C(\C)O | 2.74 µM | 12.7 µM

Structure (SMILES) | GI50 | TGI
COc1cccc(C2=C(c3cn(C)c4ccccc34)C(=O)NC2=O)c1 | 5.13 µM | > 25 µM
CCn1c(-c2nonc2N)nc2cncc(C(=O)N3CCNCC3)c21 | > 25 µM | > 25 µM
COc1cc2c(cc1OC)-c1ccc3cc4c(cc3c1N(CCN1CCCC1)C2)OCO4 | 0.653 µM | 2.2 µM
N#Cc1ncc(/N=C/c2ccc(N(CCCl)CCCl)cc2)s1 | 0.436 µM | 3.65 µM
CCCN(Cc1ccc(F)cc1)c1ccc(CO)c(Cl)c1 | 0.0212 µM | 0.0625 µM
N=C(N)c1nn(C2OC(CO)C(O)C2O)c2nc[nH]c(=O)c12 (stereo not given) | 0.372 µM | 1.69 µM
COc1ccc([C@@H]2[C@@H](O)C(=O)N2c2cc(OC)c(OC)c(OC)c2)cc1F | 0.0269 µM | 0.398 µM
CCCN1C(=O)/C(=c2\sc3n(c2=O)C2C(NN=3)N(CC)C(=O)N2CC)c2ccccc21 (stereo not given) | 0.464 µM | 10.4 µM
CCc1ccc(NC(=O)Nc2c[nH]c3ccccc23)cc1 | 18.8 µM | > 56.5 µM
CC1=C(C)C(=O)C(Nc2cccc(C(F)(F)F)c2)=C(Cl)C1=O | 1.24 µM | 2.94 µM
CCOC(=O)Cc1c[nH]c(=S)[nH]c1=O | > 100 µM | > 100 µM
O=C(CCN1CCCC1)Nc1ccc2c(NCc3ccc(F)cc3)c3ccccc3nc2c1 | 0.318 µM | 1.4 µM
O=C(Nc1cccc(Cl)c1)Nc1ncc(CCNc2ncnc3ccsc23)s1 | 0.196 µM and 0.952 µM | 8.39 µM and > 10 µM
c1ccc2nc(Cn3c[n+](Cc4ccc5ccccc5n4)c4ccccc43)ccc2c1 | 0.645 µM | 5.44 µM
COc1ccc(Cn2nc(-c3cc(OC)c(OC)c(OC)c3)c3c2CCc2cnoc2-3)cc1OC | 1.94 µM | 8.84 µM
O=c1cc(CNc2cc(F)cc(F)c2)c2ccc(I)cc2[nH]1 | 0.409 µM | > 100 µM
N#CSc1ncnc2nc[nH]c12 | 0.522 µM | > 100 µM
COc1ccc(-c2ccc(-c3ccc(C(=N)N)nc3)s2)cc1 | 1.63 µM | 3.11 µM
O=C(CCl)c1ccc([N+](=O)[O-])o1 | 1.06 µM | 2.77 µM
CN(C)c1ccc2nc3ccc(=[N+](C)C)cc-3oc2c1 | 0.62 µM | 3.58 µM
CCN(CC)CCOc1ccc(C(=C(C)c2ccc(Cl)cc2)c2ccc(OCCN(CC)CC)cc2)cc1 | 0.556 µM | 1.1 µM
C[C@]12CC[C@H]3[C@@H](CC=C4C[C@@H](O)CC[C@@]43C)[C@@H]1CC[C@@H]2[C@](C)(O)CCc1cccnc1 | 1.91 µM | > 100 µM

From PubChem BioAssay (NCI)
